Results reported in patent US20180036270A1, “A METHOD OF PROTECTING AGAINST CARBONYL STRESS INDUCED ISCHEMIA-REPERFUSION INJURY IN THE DIABETIC BRAIN VIA ADMINISTRATION OF N-ACETYLCYSTEINE” (Board of Supervisors of Louisiana State University and …, priority 2015, published 2018).
Entries after “also recorded” stand apart in the source; their conditions may differ.

Experiments:
[1] = system: brain GSH and cysteine contents; assay: Brain GSH and cysteine by HPLC; format: in vivo, mouse
Text: (§1) Four-week-old male C57BL/6J mice, weighing 18-20 g, were purchased from Jackson Laboratory. These mice were maintained at the Animal Facility of the Louisiana State University Health Sciences Center—Shreveport. Animal care and use in the experiments follow the guidelines in the Guide for the Care and Use of Laboratory Animals, published by the US National Institutes of Health. Following adaptation for 1 week, the mice were divided randomly into 4 groups: non-treated sham operation group (NT-sham group, n=6), non-treated I/R group (NT-I/R group, n=5), vehicle I/R group (Veh-I/R group, n=24), and streptozotocin I/R group (STZ-I/R group, n=19). […] On day 7, mice whose plasma glucose was more than 300 mg/dl were deemed to be diabetic. From diabetes onset at week 1, a group of diabetic mice were given 0.2 mM NAC in the drinking water for 3 weeks (n=3; a total of 4 weeks diabetes, 3 weeks NAC) or 1 week (n=9; a total of 2 weeks diabetes, 1 week NAC). Veh-I/R mice were injected with citrate buffer for consecutive 5 days, and a group of Veh-treated mice were given 0.2 mM NAC for 2 weeks in the drinking water before the ischemia operation (Veh+NAC group, n=8). Another Veh-treated mice were injected (intraperitoneally, 12 hr interval) with 0.5M BSO 24 h before the ischemia operation and during the 24 h reperfusion period (Veh+BSO group, n=10). All mice were 9 weeks old at sacrifice.
Tissue contents of GSH, cysteine and γGC were determined by high-performance liquid chromatography (HPLC). […] Separation of GSH, cysteine and γGC derivatives whose peaks were detected at 365 nm wavelength was performed on a 250×4.6-mm Alltech Lichrosorb NH2 10 μm anion-exchange column. GSH, cysteine and γGC contents were quantified by comparison to standards derivatized in the same manner. Protein pellets were dissolved in 1 M NaOH for protein quantitation and GSH, cysteine and γGC concentrations were expressed as nanomoles per mg protein.

[2] = Plasma glucose levels in diabetic mice; format: in vivo, mouse; conditions: 2 mM NAC for 3 weeks, 4 week diabetic mice
Experimental: Plasma levels in diabetic mice were elevated at ˜[…] which was 3-fold higher than controls (˜200 mg/dL). The percent (%) brain infarct area in vehicle- and STZ treated mice is linearly correlated with the plasma glucose level.
as §1, with “From diabetes onset at week 1, a group of diabetic mice were given 0.2 mM NAC in the drinking water for 3 weeks (n=3; a total of 4 weeks diabetes, 3 weeks NAC) or 1 week (n=9; a total of 2 weeks diabetes, 1 week NAC). Veh-I/R mice were injected with citrate buffer for consecutive 5 days, and a group of Veh-treated mice were given 0.2 mM NAC for 2 weeks in the drinking water before the ischemia operation (Veh+NAC group, n=8).” left out

[3] = system: brain MG contents; assay: Brain MG by HPLC; format: in vivo, mouse; conditions: STZ diabetic mice, NAC 3 weeks
Experimental: Tissue contents of MG were also determined by HPLC. The brain tissues were homogenized in the same manner as that for GSH measurement. Homogenates (581 μl) were incubated with 19 μl of 60% perchloric acid at room temperature for 24 h and then centrifuged at 12000 rpm at 4° C. for 10 min. The supernatants were derivatized with 0.1M of o-phenylenediamine for 24 h to produce 2-methylquinoxaline. On the third day, the supernatants were used for measurements of MG contents. Separation of MG derivatives, whose peak was detected at 315 nm wavelength, was performed on a 250×4.6-mm Chromegabond Ultra C-18 reversed phase HPLC column. The contents were quantified using MG standards derivatized with o-phenylenediamine. MG contents were normalized to protein concentrations and expressed as nanomoles per mg protein.

[4] = system: blood-brain barrier (BBB); assay: Blood-brain barrier permeability by Evans Blue extrusion; format: in vivo, mouse; conditions: STZ mice, NAC 3 weeks
[5] = system: platelet-leukocyte aggregates (PLAs); assay: Platelet-leukocyte aggregate formation in STZ diabetic mice; format: in vivo, mouse; conditions: 5 and 19 week diabetic mice; NAC 2 mM for 2 weeks
Experimental: Turning to FIGS. 25A-25D, the percent of circulating leukocytes forming aggregates with platelets at 5 weeks of diabetes is shown (FIG. 25A). Aggregate formation between platelets and leukocyte subpopulations include: lymphocytes (FIG. 25B), neutrophils (FIG. 25C) and monocytes (FIG. 25D). Non-diabetic (vehicle-treated (Veh)), diabetic (STZ) and diabetic mice treated with NAC (2 mM for 2 weeks) were assessed. Turning to FIGS. 26A-26D, the percent of circulating leukocytes forming aggregates with platelets at 19 weeks of diabetes is shown (FIG. 26A). Aggregate formation between platelets and leukocyte subpopulations include: lymphocytes (FIG. 26B), neutrophils (FIG. 26C) and monocytes (FIG. 26D). Non-diabetic (vehicle-treated (Veh)), diabetic (STZ) and diabetic mice treated with NAC (2 mM for 2 weeks) were assessed.

[6] = system: human brain microvascular endothelial cell; assay: Endothelial barrier permeability by transendothelial electrical resistance; format: cell-based; conditions: MG with NAC
Experimental: Moreover, treatment with 100 μM MG in rat thoracic aortic rings for 24 h decreases acetylcholine-induced vascular relaxation via a reduction in p-eNOS (Ser1177) and p-AMPKα (Thr172). MG can reduce endothelial angiogenesis through RAGE-mediated, ONOO(^−)-dependent and autophagy-induced VEGFR2 degradation. […] This is exacerbated by GSH synthesis inhibition and prevented by NAC. The enhanced MG concentration in diabetic patients can also directly contribute to the platelet dysfunction associated with diabetes. Platelet dysfunction is characterized by hyperaggregability and reduced thrombus stability via potentiating thrombin-induced platelet aggregation and dense granule release, but inhibiting platelet spreading on fibronectin and collagen. Given that endothelial dysfunction and enhanced platelet activation could promote stroke, these studies indicate that MG can contribute to ischemic brain injury.

[7] = 60 mg/kg/d over 8-75 months in young children; cited from earlier work

CC(=O)N[C@@H](CS)C(=O)O [NAC, N-acetylcysteine]
brain GSH concentrations ([1]; STZ diabetic mice, NAC in drinking water 1 or 3 weeks): significant increases in tissue GSH levels; also recorded: significantly higher; also recorded: increased
brain cysteine levels ([1]; vehicle and STZ diabetic mice given NAC): significant decrease; also recorded: significantly decreased
plasma glucose levels [2]: did not alter
MG-to-GSH ratio [3]: significantly decreased
brain MG levels [3]: a trend for decreased MG, but not significant; also recorded: remained high, although trending lower; also recorded: attenuated
leakage of Evans Blue (BBB permeability) [4]: significantly decreased
platelet-leukocyte aggregate (PLA) formation [5]: effectively normalized
MG-induced endothelial barrier permeability [6]: prevented
tolerability [7]: well-tolerated
